# How the values were obtained:
# [1] = tested on: RKO; assay: K-Ras Wnt synthetic lethal, RKO KrasSL; format: cell-based; settings: Homo sapiens, average of three independent experiments, read-out: RKO KrasSL % Inhibit
# Source text: (§1) Selected compounds of this invention were screened for K-Ras Wnt synthetic lethal, anti-angiogenic activity, Wnt pathway modulatory activity, insulin and GLP-1 secretion modulatory activity, GPR119 receptor agonist activity, mGlu2R antagonist activity, CGRP receptor antagonist activity, Apelin receptor agonist activity and hexokinase 2 inhibitory activity using the PD^2 and TD^2 Screening Panel (Eli Lilly & Company). See Lee, et al. (2011) J. Biomol. Screen. 16:588-602.
# [2] = biological target: hCGRP1 (Homo sapiens, UniProt O60894+Q16602); assay: CGRP receptor antagonist, hCGRP1 antagonism; format: cell-based
# Chain of hCGRP1 (Q16602 23-461): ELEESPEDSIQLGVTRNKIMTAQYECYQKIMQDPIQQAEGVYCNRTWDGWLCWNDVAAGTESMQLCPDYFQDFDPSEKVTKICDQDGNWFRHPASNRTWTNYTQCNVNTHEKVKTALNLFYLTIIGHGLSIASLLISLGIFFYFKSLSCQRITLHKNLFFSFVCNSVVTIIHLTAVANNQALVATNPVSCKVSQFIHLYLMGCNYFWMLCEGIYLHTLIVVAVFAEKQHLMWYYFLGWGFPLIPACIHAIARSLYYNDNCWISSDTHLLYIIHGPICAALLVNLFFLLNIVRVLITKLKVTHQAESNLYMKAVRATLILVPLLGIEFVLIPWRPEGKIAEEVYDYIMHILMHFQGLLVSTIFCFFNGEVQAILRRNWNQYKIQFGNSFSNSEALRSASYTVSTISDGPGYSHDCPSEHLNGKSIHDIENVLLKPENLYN
# Chain of hCGRP1 (O60894 27-148 partner): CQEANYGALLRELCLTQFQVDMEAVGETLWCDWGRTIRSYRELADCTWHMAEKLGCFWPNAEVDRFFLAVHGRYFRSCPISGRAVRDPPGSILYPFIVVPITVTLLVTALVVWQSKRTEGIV
# Source text: as §1
# [3] = biological target: T1, hGPR119 (Homo sapiens, UniProt Q8TDV5); assay: GPR119 receptor agonist, hGPR119 agonism; format: cell-based; settings: @ 10 μM
# T1 sequence (Q8TDV5 1-335): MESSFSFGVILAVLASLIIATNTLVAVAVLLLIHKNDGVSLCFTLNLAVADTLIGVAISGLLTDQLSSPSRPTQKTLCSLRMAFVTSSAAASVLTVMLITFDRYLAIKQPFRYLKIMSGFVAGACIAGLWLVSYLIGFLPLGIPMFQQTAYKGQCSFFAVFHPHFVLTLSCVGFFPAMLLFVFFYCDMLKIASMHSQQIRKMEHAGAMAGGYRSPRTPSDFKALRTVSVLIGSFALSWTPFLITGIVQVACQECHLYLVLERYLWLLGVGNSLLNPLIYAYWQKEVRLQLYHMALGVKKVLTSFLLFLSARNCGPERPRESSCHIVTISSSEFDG
# Source text: as §1
# [4] = tested on: hNCI-H716; assay: hNCI basal LDH secretion; format: cell-based; settings: read-out: Primary CRC (EC50, μM) hNCI Basal
# Experimental: In light of the above results, additional compounds (Table 7) were prepared and phenotypic assays were carried out using hNCI-H716 and mSTC-1 cell lines to monitor GLP-1 secretion (single point (SP) and concentration response curves (CRC)) (Table 8), as well as a secondary assay with pituitary cells (Table 9).
# [5] = Plasma compound exposure after oral dosing in mice; format: in vivo, Mice (male C57BL/6); settings: male, C57BL/6, mouse, plasma, oral 100 mg/kg, 30 minutes post-dose, read-out: mean (±standard deviation) plasma levels
# Experimental: Mice (male C57BL/6, 8-10 weeks of age) were fasted overnight by being placed in a clean cage without food. The next day, all mice were weighed and assigned to groups of similar body weights. Test compounds were formulated in 1% HEC, 0.25% TWEEN 80, 0.05% antifoam (vehicle control). Compounds 11ls and llu were orally dosed (100 mg/kg) and cardiac sticks were done on CO2 euthanized mice at 30 minutes post-dose. Blood (500+μL whole blood) from the cardiac stick was placed in chilled EDTA-plasma tubes with inhibitors, DPP4 inhibitor (5 μL/500 μL blood) and aprotinin (bovine lung, […]/500 μL blood), and stored on ice. Plasma was separated by centrifugation and aliquoted for compound exposure to total GIP and GLP-1 (X-36 amide). Plates for compound exposure were analyzed for absorption, distribution, metabolism, and excretion, while conventional kits were used for GLP-1 (x-36) amide (Mesoscale) and GIP (Millipore) analyses.
# [6] = tested on: Angio Tube Area; assay: Anti-angiogenic activity, Angio Tube Area; format: cell-based; settings: read-out: Angio Tube Area % Inhibit
# Source text: as §1
smiles,measurement,setting,value
CC1(C)c2c([nH]c3ccc(Cl)cc23)C2C=CC1C2 (stereo not drawn) [Compound 11s],inhibition at 0.2 µM,[1]; @ 0.2 μM,-2.8%
same,inhibition at 2 µM,[1]; @ 2 μM,14.4%
same,inhibition at 20 µM,[1]; @ 20 μM,102%
same,inhibition at 30 µM,[2],77.1%
same,hGPR119 agonism % Stimulation,[3],−5.1%
same,EC50,[4],> 40 µM
same,concentration at 30 min,[5],412 ± 88.2 ng/mL
same,inhibition at 2 µM,[6]; @ 2 μM,21.7%
same,inhibition at 10 µM,[6]; @ 10 μM,21.8%
